Experimental data reported in patent publication US20260159474A1, “Aminoindane Compounds and Compositions and Methods of Their Therapeutic Use” (Solvonis Therapeutics Ireland Holdings Limited, priority 2021, published 2026).
pIC50: −log10 of the molar value. Read-outs that look alike come from different tables or passages of the source.

Columns and labels:
[1] = Plasma protein binding by equilibrium dialysis, human plasma; assay type: in vitro ADME; details: for Human Plasma (Fu %): fraction unbound, 0.5 μM; for fraction unbound at 5 h, 0.5 μM: human, plasma, pH 7.4, read-out: Human Plasma (Fu %)
Protocol: (§1) Methods: Plasma protein binding and blood tissue binding of test items (0.5 μM) was determined using biological samples from male Sprague Dawley (SD) rats and humans. […] Dexamethasone was used as a control compound for lung tissue binding. Various biological samples were spiked with test compounds according to the methods that follow.
(§2) Preparation of plasma or blood samples: An appropriate amount of test compound was dissolved in DMSO to yield a 10 mM solution. Further dilutions, to obtain 50 μM working solutions (WS), were then prepared using 50% acetonitrile in Milli-Q water. These 100×WS were used to spike plasma or blood to obtain a final concentration of 0.5 μM. From this initial spiking solution, control samples (n=3), referred to as T=0, were immediately extracted and used to calculate the recovery of the test item.
(§3) An equilibrium dialysis method was performed to determine protein binding in the various biological samples described herein. Materials were prepared and methods were in accordance with the following procedures.
(§4) Membranes were prepared for use in the equilibrium dialysis experiment. by soaking in deionized water for at least 60 minutes. After this period, 20% of pure ethanol was added, and the membranes were left in this solution for at least 20 minutes. The membranes were then rinsed in Milli-Q water prior to use.
(§5) To initiate the experiment, 150 μL of test item-free buffer (isotonic phosphate buffer for plasma and blood, artificial CSF buffer for brain or HBSS buffer for lung) was dispensed on one half-well of a 96-well dialyzer apparatus (HTDialysis LLC), and 150 μL of spiked matrix (plasma, blood, brain or lung) was loaded on the other half-well. Alternative volumes may be used according to the operating instructions of HTDialysis.
(§6) Dialysis buffer was prepared by dissolving Na2HPO4 8.69 g, KH2PO4 1.90 g, and NaCl 4.11 g in […] of MilliQ water, and adjusting the pH to 7.4 with H3PO4. At the end of the equilibration period (device is sealed and incubated under shaking for 5 hours at 37° C.), 50 μL of dialysed matrix will be added to 50 μL of corresponding test item free dialysed buffer, and vice versa for buffer, such that the volume of buffer to matrix will be the same. Samples were extracted by protein precipitation with 300 μL of acetonitrile containing rolipram (for positive ionization mode) or diclofenac (for negative ionization mode) as internal standard and centrifuged for 10 minutes at 2800 rpm. Supernatants were collected (100 μL), diluted with 18% ACN in Milli Q water (200 μL).
Samples were then injected onto an HPLC MS/MS or UPLC MS/MS system. In order to control the integrity of the membrane after the dialysis process, the presence of protein was assessed in the buffer compartment. 5 μL of dialysed buffer will be added with 250 μL of Bio-Rad protein assay reagent (Bio-Rad) diluted 1:5 with Milli-Q water. A change in color from brown to a brilliant blue indicates protein contamination. Contaminated samples were excluded from all calculations.
(§7) Samples were analyzed in a LC-MS/MS system using an analytical method to monitor the compound to internal standard peak area ratios as representative of the compound concentrations. Alternatively, samples were analyzed by RapidFire.
Protein binding in plasma, blood, brain, and lung tissue samples were determined with the following formula: Afu=Buffer/x, wherein “x” may be plasma, blood, brain, or lung, and “Afu” is the apparent fraction unbound, and the other variables refer to the analyte/internal standard ratio determined in their specific compartment (buffer, plasma, blood, brain homogenate, and lung homogenate); Fucr-(1/D)/[(1/Afu)-1+(1/D)], wherein fucr is the fraction unbound corrected, D is the matrix dilution factor (D=1 for plasma, 2 for blood, 3 for brain, 7 for lung). % Binding=(1−fucr)×100 and % Unbound=100—% Bound. See, e.g., Kalvass et al., Drug Metab Dispos., 2018; 46(4):458-469. […]

[2] = Plasma protein binding by equilibrium dialysis, rat plasma; assay type: in vitro ADME; details: for Rat Plasma (Fu %): fraction unbound, 0.5 μM; for fraction unbound at 5 h, 0.5 μM: male, Sprague Dawley, rat, plasma, pH 7.4, read-out: Rat Plasma (Fu %)
Protocol: as §1, §2, §3, §4, §5
as §6, with “Supernatants were collected (100 μL), diluted with 18% ACN in Milli Q water (200 μL).” left out
Samples were then injected onto an HPLC MS/MS or UPLC MS/MS system. In order to control the integrity of the membrane after the dialysis process, the presence of protein was assessed in the buffer compartment. […]
as §7
Protein binding in plasma, blood, brain, and lung tissue samples were determined with the following formula: Afu=Buffer/x, wherein “x” may be plasma, blood, brain, or lung, and “Afu” is the apparent fraction unbound, and the other variables refer to the analyte/internal standard ratio determined in their specific compartment (buffer, plasma, blood, brain homogenate, and lung homogenate); Fucr-(1/D)/[(1/Afu)-1+(1/D)], wherein fucr is the fraction unbound corrected, D is the matrix dilution factor (D=1 for plasma, 2 for blood, 3 for brain, 7 for lung). % Binding=(1−fucr)×100 and % Unbound=100—% Bound. […]

hSERT = target: T1, hSERT (Homo sapiens, UniProt P31645); assay: SERT uptake SPA in hSERT-CHO cells; assay type: cell-based; details: for IC50: read-out: SERT Uptake SPA (pIC50) (converted); for SERT/DAT Uptake Ratio: calculated as 1/SERT IC50:1/DAT IC50
T1 construct: expressed in transfected cells; host or cells: CHO (hSERT-CHO)
Protocol: Briefly, on experiment days, hDAT-CHO cells were detached using Versene and added at a density of approximately 300,000 cells/mL to the SPA Mixture, which contains the following components in Assay Buffer (20 mM HEPES, 145 mM NaCl, 5 mM KCl, 2 mM CaCl2), 1 mM MgCl2, 5.5 mM glucose, 0.01% Pluronic F127, pH 7.3): 0.75 mg/mL SPA Imaging beads (RPNQ0001, PerkinElmer), 10 μM pargyline and 80 nM of [3H]-dopamine (NET673, PerkinEImer). The SPA Mixture was added 20 μL/well to 384 well plates containing 0.1 μL/well of test compound in neat DMSO (11 points of 1:5 serial dilution, 0.5% DMSO final) or 0.1 μL of DMSO (total uptake) or 0.1 μL of the standard inhibitor indatraline (at 1 μM final concentration, as nonspecific uptake). Plates were sealed with a Top-seal A and read using a Microbeta counter (PerkinElmer) after 45 minutes of incubation at room temperature. […] The SPA Mixture was added 20 μL/well to 384 well plates containing 0.1 μL/well of test compound in neat DMSO (11 points of 1:5 serial dilution, 0.5% DMSO final), 0.1 μL of DMSO (total uptake), or 0.1 μL of the standard inhibitor indatraline (1 μM, nonspecific uptake). Plates were sealed with a Top-seal A and read using a Microbeta counter (PerkinElmer) after 120 minutes of incubation at room temperature.
For both tests, the raw experimental data (cpm) were elaborated for the determination of pIC50/IC50 values as % inhibition of specific uptake. Concentration-response curves of MDMA, MDDMA, citalopram and GBR-12909 were used as internal standards in all experiments, and the signal window was monitored in each plate performing Z′ calculations, as described in Zhang et al., J Biomol Screen.

[3] = [3H]-serotonin uptake, hSERT-CHO cells

T1 sequence (P31645 whole entry): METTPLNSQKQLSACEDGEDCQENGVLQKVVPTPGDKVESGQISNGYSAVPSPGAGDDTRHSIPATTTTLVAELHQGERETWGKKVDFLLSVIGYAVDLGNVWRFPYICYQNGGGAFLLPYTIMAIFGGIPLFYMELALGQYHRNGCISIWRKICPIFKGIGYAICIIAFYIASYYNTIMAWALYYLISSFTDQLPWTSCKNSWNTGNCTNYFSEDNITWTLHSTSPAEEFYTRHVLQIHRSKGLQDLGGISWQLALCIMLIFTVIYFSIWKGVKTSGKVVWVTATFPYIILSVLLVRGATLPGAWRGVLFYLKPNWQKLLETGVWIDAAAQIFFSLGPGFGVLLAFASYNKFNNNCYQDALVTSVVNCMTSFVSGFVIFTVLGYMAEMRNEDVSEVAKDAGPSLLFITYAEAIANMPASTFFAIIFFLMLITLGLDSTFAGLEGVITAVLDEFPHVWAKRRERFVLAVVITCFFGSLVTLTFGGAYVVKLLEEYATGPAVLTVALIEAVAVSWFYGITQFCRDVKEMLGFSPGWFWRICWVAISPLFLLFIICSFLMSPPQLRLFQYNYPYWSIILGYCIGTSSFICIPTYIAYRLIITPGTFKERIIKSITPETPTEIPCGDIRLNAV

| Structure (SMILES) | Human Plasma (Fu %) [1] | fraction unbound at 5 h, 0.5 μM [1] | Rat Plasma (Fu %) [2] | IC50 (hSERT; [3]) | SERT/DAT Uptake Ratio (hSERT) | SERT Uptake SPA (pIC50) (hSERT; [3]) | fraction unbound at 5 h, 0.5 μM [2] | pIC50 (hSERT) |
| --- | --- | --- | --- | --- | --- | --- | --- | --- |
| COC(=O)c1cc2c(cc1OC)CC(N)C2 (stereo not drawn) [CMP-401] | >50% | > 0.5 | Low | 3.98 µM | 22 | – | – | – |
| COC(=O)COc1ccc2c(c1)CC(N)C2 (stereo not drawn) [CMP-402] | >50% | > 0.5 | – | 63.1 µM | 1.4 | – | – | – |
| COC(=O)c1ccc2c(c1)CC(N)C2 (stereo not drawn) [CMP-405, 2-aminoindane-5-methylcarboxylate] | high binding in plasma specimens and Low | – | high binding in plasma specimens and Low | 7.94 µM | – | – | – | – |
| CNC(C)Cc1ccc2c(c1)OCO2 (stereo not drawn) [MDMA] | >50% | – | >50% | – | 2.1 | 6.0 | – | – |
| COc1ccc2c(c1)CC(N)C2 (stereo not drawn) [MEAI, 5-methoxy-2-aminoindane] | – | > 0.5 | – | – | 9 | – | > 0.5 | 5.40 |
| COc1cc2c(cc1C)CC(N)C2 (stereo not drawn) [MMAI, 5-methoxy-6-methyl-2-aminoindane] | – | > 0.5 | – | – | 52 | – | > 0.5 | 6.00 |
